Reference: US8044022B2, “Hyaluronic acid binding peptides enhance host defense against pathogenic bacteria” (priority 2005, dated 2011)

What was measured:
[1] = Fluorometry binding of FITC-conjugated peptide to purified HA in well; parameters: species or system rooster
Protocol: Lyophilized synthetic peptides were resuspended in PBS pH7.4 prior to use in either in vitro or in vivo experiments. Fluorescein conjugation of HABP01 and SCRM was performed using 5,6 carboxyfluorescein, succinimidyl ester (5,6 FAM) (Molecular Probes, Portland, Oreg.) as per manufacturer's instructions and separated on a Sephadex G-25 column (Amersham, Piscataway, N.J.). Purified, high molecular weight rooster comb HA (Sigma-Aldrich, St Louis, Mo.) was used as a positive control for BP binding.
Binding of HABP to HA and HA-encapsulated bacteria: To assess whether HABP are able to associate specifically with the GAS capsule, bacteria were cultured to mid-log phase, for maximal HA capsule expression, and incubated with either 10 μg/ml of FITC-conjugated HABP01 or SCRM, with purified HA at 1 mg/ml, as a positive control, or an isogenic mutant strain of GAS deficient in HA capsule, as a negative control. A GAS-specific antibody was used to control for the number of bacteria per well.

[2] = tested on: GAS; assay: Opsonophagocytic assay with human neutrophils; assay type: cell-based, Group A Streptococcus; settings: 50 μg/ml, 2 hours incubation with human neutrophils, 10% absorbed human serum
Protocol: Encapsulated GAS are resistant to killing by neutrophils in opsonophagocytic assays in the absence of antibodies that bind the bacterial surface. HABPs binding to the bacterial surface may facilitate neutrophil cytotoxicity. Opsonophagocytic assays were performed wherein GAS were incubated with 50 μg/ml of SCRM, HABP01 or HABP35 and mixed with human neutrophils in medium containing 10% absorbed human serum. Aliquots (25 μl) for quantitative culture were withdrawn immediately after mixing neutrophil with GAS and after 2 hr incubation at 37° C. The log increase or decrease in CFU's was calculated. After 2 hours of incubation, there was about a 1.5 log increase in CFU's for GAS treated with PBS or SCRM.

[3] = tested on: GAS; assay: Mouse soft tissue invasive infection model; parameters: species or system CBA/J mice; settings: in vivo
Protocol: Mouse soft tissue invasive infection model: Female 4-6-week-old CBA/J mice (Jackson Laboratory, […].) were inoculated with GAS. Briefly, mice were anesthetized and the hair was shaved off the right flank. Approximately 1.5×10^5 cfu of GAS from an early log-phase broth culture were suspended in 50 μl of sterile PBS or HABP and inoculated just under the surface of the skin with a 27-guage needle. The animals were observed twice daily for 3-5 days. Serial tail vein bleeds were performed daily and 50 μl of blood was inoculated on BAP for enumeration of viable bacterial CFU and incubated at 37° C. for 24 hours. Animals surviving the experiment or appearing moribund at any time were euthanized and the spleen removed using aseptic technique. The spleen was homogenized in 1 ml of THB and 100 μl of homogenate plated on BAP. In some experiments animals were euthanized at various time points during infection and tissue sections from the inoculation site were prepared for histopathological examination.
HABP-treated mice repeatedly indicated a 24-hour to 48-hour delay in dissemination of bacteria from the inoculation site compared to controls. […] The delayed dissemination correlated with a reduced mortality 24 hours after infection, but once dissemination occurred, HABP-treated mice died rapidly. Histopathologic analysis of the infection site indicated typical lateral GAS dissemination. […]

[4] = tested on: S. aureus strain PS80; assay: Mouse model of S. aureus surgical wound infection; assay type: in vivo, C57BL6 mice; settings: 100 μg into wound at time of challenge with 10^2 CFU; 3 days later
Protocol: Bacterial strains. S. aureus strain PS80 (serotype 8) was obtained from the American Type Culture collection (#27700) and is a potent inducer of intraabdominal abscess formation. S. aureus COL is a methicillin resistant strain that produces a serotype 5 capsule. Staphylococci were cultivated for 24 h at 37° C. on Columbia agar (Difco Laboratories, Detroit, Mich.) supplemented with 2% NaCl.
Mouse model of S. aureus wound infection. Mice (C57BL6, male, 6-8 wk old) were obtained from Jackson Laboratories (Bar Harbor, Me.). Groups of mice (N=4/group/experiment) were anesthetized with 100 mg/kg ketamine and 10 mg/kg xylazine, their right thighs were shaved, and the surgical area was disinfected with iodine and 70% ethanol. An incision was made in the skin to expose the thigh muscle, and a 1-cm incision was made with a scalpel into the thigh muscle to the depth of the bone. The muscle was then closed with one 4-0 silk suture, and 10 μl of a S. aureus suspension ranging in dose from 10^2 to 10^4 CFU was introduced into the incision under the suture. The skin was closed with four additional Prolene sutures. The mice were euthanized at 3 days post-surgery. The wounded muscle tissue was excised, weighed (˜0.08 g), and homogenized in 1 ml of tryptic soy broth. Serial dilutions of the homogenates were plated in duplicate and results were expressed as CFU/g tissue. Peptides were administered to animals in two ways. For most experiments, HABPs were solubilized in PBS and administered with a pipet into the wound in a 10 μl volume following challenge with bacteria. A 100 μg dose was used for most experiments. For therapeutic studies, peptide was administered via a 1 ml tuberculin syringe fitted with a 25 gauge needle in a 0.25 ml volume injected into the thigh muscle containing the wound distal from the incision site.
Gross pathology and histologic analysis of host response. […] Histological examination of these wounds confirmed these findings. Muscle tissue was harvested from mice at designated intervals post-surgery, fixed in 10% buffered formalin, and mounted in paraffin; 5 to 6-μm sections were cut and stained with hematoxylin and eosin for microscopic examination. […] The cellular infiltrate was primarily comprised of PMNs and fibrin.
Statistical analyses. All animal experiments were performed at least two times and the data pooled. Comparison of S. aureus CFU/g tissue was made by the Welch modification of the unpaired Student t test (InStat, GraphPad Software, San Diego, Calif.).

In the case of “HKSVSRHTSMRHSTM [SCRM, reference compound]”, the “binding to purified HA (in words)” value ([1]; fluorometry) is reported as “did not bind”, the Relative binding ([1]; substrate in well: HA (1 mg/ml), 10 μg/ml FITC-conjugated peptide) is reported as 1520 ± 20 relative fluorescent units and the “log increase in CFU's” value [2] is reported as about 1.5 log. For the same sequence, the “PMNs at the infection site (confocal microscopy of tissue sections)” value [3] was “numerous polymorphonuclear leukocytes” and the “bacterial burden at the wound site compared with PBS” value [4] was “did not have this effect”.
